Results: US20230183237A1, “COMPETITIVE AND NONCOMPETITIVE INHIBITORS OF THE MUSCARINIC ACETYLCHOLINE RECEPTOR M5” (Vanderbilt University, priority 2020, published 2023)

Biological target: T1, hM5 (Homo sapiens, UniProt P08912)
T1 construct: expressed in transfected cells
T1 sequence (P08912 1-532): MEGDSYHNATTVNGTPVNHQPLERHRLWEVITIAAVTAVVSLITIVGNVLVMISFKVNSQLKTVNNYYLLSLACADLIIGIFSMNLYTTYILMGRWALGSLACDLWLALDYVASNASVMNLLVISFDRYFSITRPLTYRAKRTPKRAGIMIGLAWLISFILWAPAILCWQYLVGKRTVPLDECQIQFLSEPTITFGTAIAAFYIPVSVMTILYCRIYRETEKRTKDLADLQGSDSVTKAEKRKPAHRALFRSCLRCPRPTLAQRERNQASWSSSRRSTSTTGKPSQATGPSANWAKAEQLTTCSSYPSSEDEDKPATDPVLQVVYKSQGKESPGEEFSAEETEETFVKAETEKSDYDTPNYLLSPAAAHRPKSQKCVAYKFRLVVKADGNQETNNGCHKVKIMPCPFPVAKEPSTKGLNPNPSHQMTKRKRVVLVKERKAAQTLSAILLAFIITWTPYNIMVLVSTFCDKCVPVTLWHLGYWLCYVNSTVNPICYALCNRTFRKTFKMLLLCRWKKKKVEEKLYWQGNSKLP
Assay: Calcium mobilization concentration-response (IC50 vs EC80 acetylcholine), CHO hM5
Assay type: cell-based
Settings: CELL LINE hM5; calcium mobilization, EC80 acetylcholine addition; read-out: IC50
Procedure, shortened: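 IC50 values derive from percent maximal acetylcholine response after an EC80 ACh addition, measured as kinetic calcium fluorescence (static ratio, max−min). Test compounds were added 140 s before agonist. Cells: stable hM5-CHO in HEPES-buffered HBSS with 2.5 mM probenecid, pH 7.4; ≥3 independent triplicate determinations.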

Q: With `Cc1cn2ncnc2cc1C1=CCN(S(=O)(=O)c2cnn(C)c2C)CC1` [Compound 212, 7-(1-((1,5-dimethyl-1H-pyrazol-4-yl)sulfonyl)-1,2,3,6-tetrahydropyridin-4-yl)-6-methyl-[1,2,4]triazolo[1,5-a]pyridine] as the compound, how does the IC50 read?
A: Its IC50 is 1400 nM.

Q: With `Cc1nn(C(F)F)cc1S(=O)(=O)N1CCC(c2cn3ncnc3cc2C(F)(F)F)CC1` [Compound 276, 6-(1-((1-(difluoromethyl)-3-methyl-1H-pyrazol-4-yl)sulfonyl)piperidin-4-yl)-7-(trifluoromethyl)-[1,2,4]triazolo[1,5-a]pyridine] as the compound, how does the IC50 read?
A: Its IC50 is greater than 10000 nM.

Q: For `O=S(=O)(c1ccc2c(c1)CCO2)N1CCC(c2cc3cc[nH]c3cn2)CC1` [Compound 24, 5-(1-((2,3-dihydrobenzofuran-5-yl)sulfonyl)piperidin-4-yl)-1H-pyrrolo[2,3-c]pyridine], which IC50 is on record?
A: Its IC50 is greater than 10000 nM.

Q: With `Cc1cc2ncnn2cc1C1CCN(S(=O)(=O)c2cccc3nn(C)cc23)CC1` [Compound 290, 7-methyl-6-(1-((2-methyl-2H-indazol-4-yl)sulfonyl)piperidin-4-yl)-[1,2,4]triazolo[1,5-a]pyridine] as the compound, how does the IC50 read?
A: Its IC50 is 1200 nM.

Q: Which IC50 does the source give for `Cc1nc(C)c(S(=O)(=O)N2CCC(c3cn4ncnc4cc3C(F)(F)F)CC2)s1` [Compound 279, 2,4-dimethyl-5-((4-(7-(trifluoromethyl)-[1,2,4]triazolo[1,5-a]pyridin-6-yl)piperidin-1-yl)sulfonyl)thiazole] here?
A: The IC50 was greater than 10000 nM.

Q: Which IC50 does the source give for `O=S(=O)(c1cnn2c1CCCC2)N1CCC(c2ccc3ncnn3c2)CC1` [Compound 287, 6-(1-((4,5,6,7-tetrahydropyrazolo[1,5-a]pyridin-3-yl)sulfonyl)piperidin-4-yl)-[1,2,4]triazolo[1,5-a]pyridine] here?
A: The IC50 was 237 nM.

Q: For `CCn1ncc(S(=O)(=O)N2CCC(c3cn4ncnc4cc3C)CC2)c1C1CC1` [Compound 133, 6-(1-((5-cyclopropyl-1-ethyl-1H-pyrazol-4-yl)sulfonyl)piperidin-4-yl)-7-methyl-[1,2,4]triazolo[1,5-a]pyridine], which IC50 is on record?
A: The IC50 was greater than 10000 nM.

Q: `Cc1nc2[nH]ccc2nc1C1CCN(S(=O)(=O)c2ccc3c(c2)CCO3)CC1` [Compound 15, 2-(1-((2,3-dihydrobenzofuran-5-yl)sulfonyl)piperidin-4-yl)-3-methyl-5H-pyrrolo[2,3-b]pyrazine] was tested. Which IC50 did it give?
A: The IC50 was greater than 10000 nM.

Q: How did the IC50 turn out when `Cc1sc(C(N)=O)nc1C1CCN(S(=O)(=O)c2ccc3c(c2)CCO3)CC1` [Compound 211, 4-(1-((2,3-dihydrobenzofuran-5-yl)sulfonyl)piperidin-4-yl)-5-methylthiazole-2-carboxamide] was run?
A: The IC50 was greater than 10000 nM.

Q: How did the IC50 turn out when `Cc1nc(C)c(S(=O)(=O)N2CCC(c3nn4ncnc4cc3C)CC2)s1` [Compound 215, 2,4-dimethyl-5-((4-(7-methyl-[1,2,4]triazolo[1,5-b]pyridazin-6-yl)piperidin-1-yl)sulfonyl)thiazole] was run?
A: The IC50 was greater than 10000 nM.

Q: With `O=S(=O)(c1cnc2n1CCCC2)N1CCC(c2cn3ncnc3cc2Cl)CC1` [Compound 343] as the compound, how does the IC50 read?
A: Its IC50 is 12 nM.

Q: With `Cn1ncc(S(=O)(=O)N2CCC(c3ccc4c(c3)OCO4)CC2)c1Cl` [Compound 357, 4-(benzo[d][1,3]dioxol-5-yl)-1-((5-chloro-1-methyl-1H-pyrazol-4-yl)sulfonyl)piperidine] as the compound, how does the IC50 read?
A: Its IC50 is 384 nM.

Q: Which IC50 does the source give for `Cc1cc2nccn2nc1C1CCN(S(=O)(=O)c2cnn3c2CCC3)CC1` [Compound 246, 6-(1-((5,6-dihydro-4H-pyrrolo[1,2-b]pyrazol-3-yl)sulfonyl)piperidin-4-yl)-7-methylimidazo[1,2-b]pyridazine] here?
A: The IC50 was 17 nM.

Q: Which IC50 does the source give for `Cc1cc(C#N)cnc1C1CCN(S(=O)(=O)c2ccc3c(c2)CCO3)CC1` [Compound 218, 6-(1-((2,3-dihydrobenzofuran-5-yl)sulfonyl)piperidin-4-yl)-5-methylnicotinonitrile] here?
A: Its IC50 is greater than 10000 nM.

Q: How did the IC50 turn out when `Cc1c(C2CCN(S(=O)(=O)c3cnc4ccccn34)CC2)cn2ncnc2c1F` [Compound 348, 8-fluoro-6-(1-(imidazo[1,2-a]pyridin-3-ylsulfonyl)piperidin-4-yl)-7-methyl-[1,2,4]triazolo[1,5-a]pyridine] was run?
A: The IC50 was 50 nM.

Q: How did the IC50 turn out when `COc1ccc(S(=O)(=O)N2CCC(c3nn4ccnc4cc3C)CC2)c(C)c1` [Compound 41, 6-(1-((4-methoxy-2-methylphenyl)sulfonyl)piperidin-4-yl)-7-methylimidazo[1,2-b]pyridazine] was run?
A: Its IC50 is greater than 10000 nM.

Q: Which IC50 does the source give for `[2H]C([2H])([2H])n1nc(Cl)c(S(=O)(=O)N2CCC(c3cn4ncnc4cc3C)CC2)c1C` [Compound 260, 6-(1(3-chloro-5-methyl-1-(methyl-d3-1H-pyrazol-4-yl)sulfonyl)piperidin-4-yl)-7-methyl-[1,2,4]triazolo[1,5-a]pyridine] here?
A: Its IC50 is 29 nM.

Q: How did the IC50 turn out when `Cc1cc2ncnn2cc1C1=CCN(S(=O)(=O)c2ccc3c(c2)C(C)(C)CO3)CC1` [Compound 64, 6-(1-((3,3-dimethyl-2,3-dihydrobenzofuran-5-yl)sulfonyl)-1,2,3,6-tetrahydropyridin-4-yl)-7-methyl-[1,2,4]triazolo[1,5-a]pyridine] was run?
A: Its IC50 is greater than 10000 nM.

Q: Which IC50 does the source give for `Cc1cc2ncnn2cc1C1CCN(S(=O)(=O)c2cnc3n2CCC3)CC1` [Compound 219, 6-(1-((6,7-dihydro-5H-pyrrolo[1,2-a]imidazol-3-yl)sulfonyl)piperidin-4-yl)-7-methyl-[1,2,4]triazolo[1,5-a]pyridine] here?
A: The IC50 was greater than 10000 nM.

Same assay, conditions: CELL LINE hM5; vs EC80 acetylcholine; read-out: IC50

Q: `[2H]C([2H])([2H])Oc1c(S(=O)(=O)N2CCC(c3cn4ncnc4cc3Cl)CC2)cnn1C` [Compound 613, 7-chloro-6-(1-((5-(methoxy-d3)-1-methyl-1H-pyrazol-4-yl)sulfonyl)piperidin-4-yl)-[1,2,4]triazolo[1,5-a]pyridine] was tested. Which IC50 did it give?
A: The IC50 was 22 nM.

Q: How did the IC50 turn out when `Cc1ncc(S(=O)(=O)N2CCC(c3ccc4ncnn4c3)CC2)s1` [Compound 480, 5-((4-([1,2,4]triazolo[1,5-a]pyridin-6-yl)piperidin-1-yl)sulfonyl)-2-methylthiazole] was run?
A: The IC50 was greater than 10000 nM.

Q: `O=S(=O)(c1cnn2ccccc12)N1CCC(c2cn3ncnc3cc2F)CC1` [Compound 521, 7-fluoro-6-(1-(pyrazolo[1,5-a]pyridin-3-ylsulfonyl)piperidin-4-yl)-[1,2,4]triazolo[1,5-a]pyridine] was tested. Which IC50 did it give?
A: The IC50 was 169 nM.

Q: With `Cn1ncc(S(=O)(=O)N2CCC(c3cn4ncnc4cc3C(F)F)CC2)c1C#N` [Compound 482, 4-((4-(7-(difluoromethyl)-[1,2,4]triazolo[1,5-a]pyridin-6-yl)piperidin-1-yl)sulfonyl)-1-methyl-1H-pyrazole-5-carbonitrile] as the compound, how does the IC50 read?
A: Its IC50 is 61 nM.

Q: How did the IC50 turn out when `Cc1cc2ncnn2cc1C1(F)CCN(S(=O)(=O)c2cnn3c2CCC3)CC1` [Compound 420, 6-(1-((5,6-dihydro-4H-pyrrolo[1,2-b]pyrazol-3-yl)sulfonyl)-4-fluoropiperidin-4-yl)-7-methyl-[1,2,4]triazolo[1,5-a]pyridine] was run?
A: The IC50 was 39 nM.

Q: For `COc1c(S(=O)(=O)N2CCC(c3cn4ncnc4c(F)c3C)CC2)cnn1C` [Compound 576, 8-fluoro-6-(1-((5-methoxy-1-methyl-1H-pyrazol-4-yl)sulfonyl)piperidin-4-yl)-7-methyl-[1,2,4]triazolo[1,5-a]pyridine], which IC50 is on record?
A: Its IC50 is 19 nM.

Q: For `CO[C@@H]1CN(S(=O)(=O)c2cnn(C)c2C)CC[C@H]1c1cn2ncnc2cc1C` (racemic) [Compound 411, (rac)-6-(trans-1-((1,5-dimethyl-1H-pyrazol-4-yl)sulfonyl)-3-methoxypiperidin-4-yl)-7-methyl-[1,2,4]triazolo[1,5-a]pyridine], which IC50 is on record?
A: Its IC50 is 288 nM.

Q: How did the IC50 turn out when `Cc1cc2ncnn2cc1C1CCN(S(=O)(=O)c2cnn3cccnc23)CC1` [Compound 442, 7-methyl-6-(1-(pyrazolo[1,5-a]pyrimidin-3-ylsulfonyl)piperidin-4-yl)-[1,2,4]triazolo[1,5-a]pyridine] was run?
A: The IC50 was 175 nM.

Q: How did the IC50 turn out when `Cc1ncc(S(=O)(=O)N2CCC(c3cn4ncnc4cc3CF)CC2)o1` [Compound 623, 5-((4-(7-(fluoromethyl)-[1,2,4]triazolo[1,5-a]pyridin-6-yl)piperidin-1-yl)sulfonyl)-2-methyloxazole] was run?
A: Its IC50 is 246 nM.

Q: With `[2H]C1([2H])CC(c2cn3ncnc3cc2Cl)CC([2H])([2H])N1S(=O)(=O)c1cnn(C)c1CC#N` [Compound 621, 2-(4-((4-(7-chloro-[1,2,4]triazolo[1,5-a]pyridin-6-yl)piperidin-1-yl-2,2,6,6-d4)sulfonyl)-1-methyl-1H-pyrazol-5-yl)acetonitrile] as the compound, how does the IC50 read?
A: Its IC50 is 43 nM.

Q: For `CO[C@@H]1CN(S(=O)(=O)c2cnn3c2OCCC3)CC[C@H]1c1cn2ncnc2cc1C` (racemic) [Compound 414, (rac)-3-((trans-3-methoxy-4-(7-methyl-[1,2,4]triazolo[1,5-a]pyridin-6-yl)piperidin-1-yl)sulfonyl)-6,7-dihydro-5H-pyrazolo[5,1-b][1,3]oxazine], which IC50 is on record?
A: Its IC50 is 1460 nM.

Q: Which IC50 does the source give for `Cc1ncc(S(=O)(=O)N2CCC(c3cn4ccnc4cc3Cl)CC2)s1` [Compound 589, 5-((4-(7-chloroimidazo[1,2-a]pyridin-6-yl)piperidin-1-yl)sulfonyl)-2-methylthiazole] here?
A: The IC50 was 530 nM.

Q: For `Cc1c(C2CCN(S(=O)(=O)c3cn(C)nn3)CC2)cn2ncnc2c1F` [Compound 558, 8-fluoro-7-methyl-6-(1-((1-methyl-1H-1,2,3-triazol-4-yl)sulfonyl)piperidin-4-yl)-[1,2,4]triazoto[1,5-a]pyridine], which IC50 is on record?
A: The IC50 was 235 nM.
